Experimental findings from ChEMBL document CHEMBL1944572, “High-affinity fluorescent ligands for the 5-HT(3) receptor” (Bioorg Med Chem Lett, 2012) are described below.

Holding throughout (format): cell-based
Experiment [1] concerns the target T1, 5-hydroxytryptamine receptor 3A (Homo sapiens) (UniProt P46098).
T1 sequence (whole entry): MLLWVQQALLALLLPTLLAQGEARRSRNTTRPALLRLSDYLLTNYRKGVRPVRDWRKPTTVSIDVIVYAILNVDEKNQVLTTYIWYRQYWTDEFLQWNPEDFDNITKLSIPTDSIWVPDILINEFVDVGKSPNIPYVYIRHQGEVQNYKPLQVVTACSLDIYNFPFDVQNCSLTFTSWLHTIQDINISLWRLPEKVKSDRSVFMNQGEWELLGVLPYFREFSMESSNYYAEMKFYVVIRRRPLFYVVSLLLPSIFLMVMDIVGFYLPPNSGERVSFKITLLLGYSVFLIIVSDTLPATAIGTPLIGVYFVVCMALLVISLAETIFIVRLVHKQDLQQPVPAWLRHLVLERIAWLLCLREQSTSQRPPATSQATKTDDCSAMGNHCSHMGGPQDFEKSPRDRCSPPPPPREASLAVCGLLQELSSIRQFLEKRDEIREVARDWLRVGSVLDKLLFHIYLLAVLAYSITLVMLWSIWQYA
Briefly: Binding affinity to human 5HT3A expressed in COS7 cells at 100 nM after 1 hr by fluorescence microscopy. To be noted: COS-7.

Experiment [2] has as its target T1, 5-hydroxytryptamine receptor 3A (Homo sapiens). The experiment is described as follows: Binding affinity to human 5HT3A expressed in COS7 cells at 100 nM after 1 hr by fluorescence microscopy in presence of 10 uM ondansetron. Particulars: COS-7.
In experiment [3] the target is T2, 5-hydroxytryptamine receptor 3A (Homo sapiens, UniProt P46098).
T2 sequence (P46098 whole entry): T1 sequence (whole entry)
Briefly: Displacement of [3H]granisetron from human 5HT3A expressed in HEK293 cells after 1 hr by scintillation counting. (In a radioligand displacement assay an active substance lowers the binding of a labelled ligand.)

Calls of active or inactive are those of the source. No cut-off for these calls is given here.

Regarding `CN1[C@@H]2CCC[C@H]1C[C@H](NC(=O)c1nn(CCCCNC(=S)Nc3ccc(-c4c5ccc(=O)cc-5oc5cc(O)ccc45)c(C(=O)O)c3)c3ccccc13)C2`, the outcome in experiment [1] was Active. Besides, the outcome in experiment [2] was inactive.

On to `CCN(CC)c1ccc2cc(C(=O)NCCOc3cccc4c(C(=O)N[C@@H]5C[C@H]6CCC[C@@H](C5)N6C)nn(C)c34)c(=O)oc2c1`, for which, in experiment [1], the outcome was inactive. Regarding `CCN(CC)c1ccc2cc(C(=O)NCCCCn3nc(C(=O)N[C@@H]4C[C@H]5CCC[C@@H](C4)N5C)c4ccccc43)c(=O)oc2c1`, the result in experiment [1] was inactive. `CC1=CC(C)=[N+]2C1=C(CCCOC(=O)CCCn1nc(C(=O)N[C@@H]3C[C@H]4CCC[C@@H](C3)N4C)c3ccccc31)c1c(C)cc(C)n1[B-]2(F)F`: the result in experiment [1] and in experiment [2] was Active.

As to `CN1[C@@H]2CCC[C@H]1C[C@H](NC(=O)c1nn(CCCCNc3ccc([N+](=O)[O-])c4nonc34)c3ccccc13)C2`, the Ki result in experiment [3] was “Not Active”.

In the case of `CN(C)c1cccc2c(S(=O)(=O)NCCCn3nc(C(=O)N[C@H]4C[C@H]5CCC[C@@H](C4)N5C)c4ccccc43)cccc12`, the outcome in experiment [1] was inactive. With `CN1[C@@H]2CCC[C@H]1C[C@H](NC(=O)c1nn(CCCNC(=S)Nc3ccc(-c4c5ccc(=O)cc-5oc5cc(O)ccc45)c(C(=O)O)c3)c3ccccc13)C2`, the outcome in experiment [1] was Active. The outcome in experiment [2] was inactive. As to `CN1[C@@H]2CCC[C@H]1C[C@H](NC(=O)c1nn(CCCNc3ccc([N+](=O)[O-])c4nonc34)c3ccccc13)C2`, the outcome in experiment [1] was inactive.
